Assay results reported in ChEMBL document CHEMBL5360571, “Design, synthesis and in vitro/in vivo anticancer activity of tranylcypromine-based triazolopyrimidine analogs as novel LSD1 inhibitors” (Eur J Med Chem, 2023).

Legend:
[1] = target: T1, MAO-A (amine oxidase [flavin-containing] A) (Homo sapiens, UniProt P21397); test: Inhibition of recombinant MAO-A (unknown origin) using luciferin derivative as substrate measured at 1 uM for 60 mins by plate reader analysis relative to control; details: probe luciferin derivative
T1 sequence (P21397 whole entry): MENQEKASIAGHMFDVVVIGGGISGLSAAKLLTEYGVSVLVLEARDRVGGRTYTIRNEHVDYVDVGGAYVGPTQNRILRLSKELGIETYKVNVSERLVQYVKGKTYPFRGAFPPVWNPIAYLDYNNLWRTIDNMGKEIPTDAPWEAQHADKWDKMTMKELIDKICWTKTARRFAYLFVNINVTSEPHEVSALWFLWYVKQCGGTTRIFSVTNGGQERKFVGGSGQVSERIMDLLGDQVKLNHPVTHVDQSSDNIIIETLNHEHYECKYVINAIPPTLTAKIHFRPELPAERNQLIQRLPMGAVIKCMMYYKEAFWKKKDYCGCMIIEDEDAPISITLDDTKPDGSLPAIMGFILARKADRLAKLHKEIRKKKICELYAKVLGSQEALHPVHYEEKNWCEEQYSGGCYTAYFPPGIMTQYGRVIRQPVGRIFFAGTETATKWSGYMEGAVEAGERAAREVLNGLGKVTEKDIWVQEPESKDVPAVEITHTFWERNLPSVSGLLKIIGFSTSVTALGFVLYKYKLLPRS

[2] = target: T2, MAO-B (amine oxidase [flavin-containing] B) (Homo sapiens, UniProt P27338); test: Inhibition of recombinant MAO-B (unknown origin) using luciferin derivative as substrate measured at 1 uM for 60 mins by plate reader analysis relative to control; details: probe luciferin derivative
T2 sequence (P27338 whole entry): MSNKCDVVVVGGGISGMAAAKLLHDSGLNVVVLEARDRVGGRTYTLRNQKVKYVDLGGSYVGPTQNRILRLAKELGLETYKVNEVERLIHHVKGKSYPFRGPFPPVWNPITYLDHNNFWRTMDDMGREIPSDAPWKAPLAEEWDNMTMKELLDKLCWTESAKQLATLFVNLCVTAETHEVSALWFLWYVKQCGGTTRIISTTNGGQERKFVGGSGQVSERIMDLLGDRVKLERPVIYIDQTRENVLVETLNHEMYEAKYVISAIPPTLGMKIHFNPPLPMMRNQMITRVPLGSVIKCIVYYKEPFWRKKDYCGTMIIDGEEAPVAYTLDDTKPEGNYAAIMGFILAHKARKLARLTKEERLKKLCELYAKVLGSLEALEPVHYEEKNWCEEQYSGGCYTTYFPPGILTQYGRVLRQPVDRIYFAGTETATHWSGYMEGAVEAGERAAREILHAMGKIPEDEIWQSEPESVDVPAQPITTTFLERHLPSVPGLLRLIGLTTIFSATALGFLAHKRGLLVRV

NCI-H1650 [3] = test: Induction of apoptosis in human NCI-H1650 cells assessed as viable cells measured at 1 uM for 24 hrs by annexin V-PI staining based flow cytometric analysis (reference value: 87.4%); format: functional; details: read-out: Activity
NCI-H1650 [4] = test: Induction of apoptosis in human NCI-H1650 cells assessed as early apoptotic cells measured at 1 uM for 24 hrs by annexin V-PI staining based flow cytometric analysis (reference value: 11.2%); format: functional
NCI-H1650 [5] = test: Induction of apoptosis in human NCI-H1650 cells assessed as late apoptotic cells measured at 1 uM for 24 hrs by annexin V-PI staining based flow cytometric analysis (reference value: 1.46%); format: functional
NCI-H1650 [6] = test: Induction of apoptosis in human NCI-H1650 cells assessed as necrotic cells measured at 1 uM for 24 hrs by annexin V-PI staining based flow cytometric analysis (reference value: 0.008%); format: functional
NCI-H1650 [7] = test: Induction of apoptosis in human NCI-H1650 cells assessed as viable cells measured at 2 uM for 24 hrs by annexin V-PI staining based flow cytometric analysis (reference value: 87.4%); format: functional; details: read-out: Activity
NCI-H1650 [8] = test: Induction of apoptosis in human NCI-H1650 cells assessed as early apoptotic cells measured at 2 uM for 24 hrs by annexin V-PI staining based flow cytometric analysis (reference value: 11.2%); format: functional
NCI-H1650 [9] = test: Induction of apoptosis in human NCI-H1650 cells assessed as late apoptotic cells measured at 2 uM for 24 hrs by annexin V-PI staining based flow cytometric analysis (reference value: 1.46%); format: functional
NCI-H1650 [10] = test: Induction of apoptosis in human NCI-H1650 cells assessed as necrotic cells measured at 2 uM for 24 hrs by annexin V-PI staining based flow cytometric analysis (reference value: 0.008%); format: functional
NCI-H1650 [11] = test: Induction of apoptosis in human NCI-H1650 cells assessed as viable cells measured at 4 uM for 24 hrs by annexin V-PI staining based flow cytometric analysis (reference value: 87.4%); format: functional; details: read-out: Activity
NCI-H1650 [12] = test: Induction of apoptosis in human NCI-H1650 cells assessed as early apoptotic cells measured at 4 uM for 24 hrs by annexin V-PI staining based flow cytometric analysis (reference value: 11.2%); format: functional
NCI-H1650 [13] = test: Induction of apoptosis in human NCI-H1650 cells assessed as late apoptotic cells measured at 4 uM for 24 hrs by annexin V-PI staining based flow cytometric analysis (reference value: 1.46%); format: functional
NCI-H1650 [14] = test: Induction of apoptosis in human NCI-H1650 cells assessed as necrotic cells measured at 4 uM for 24 hrs by annexin V-PI staining based flow cytometric analysis (reference value: 0.008%); format: functional
NCI-H1650 [15] = test: Induction of apoptosis in human NCI-H1650 cells assessed as apoptotic cells measured at 1 uM for 24 hrs by annexin V-PI staining based flow cytometric analysis (reference value: 12.7%); format: functional
NCI-H1650 [16] = test: Induction of apoptosis in human NCI-H1650 cells assessed as apoptotic cells measured at 2 uM for 24 hrs by annexin V-PI staining based flow cytometric analysis (reference value: 12.7%); format: functional
NCI-H1650 [17] = test: Induction of apoptosis in human NCI-H1650 cells assessed as apoptotic cells measured at 4 uM for 24 hrs by annexin V-PI staining based flow cytometric analysis (reference value: 12.7%); format: functional
NCI-H1650 [18] = test: Induction of cell cycle arrest in human NCI-H1650 cells assessed as accumulation of cells in G1 phase measured at 1 uM for 24 hrs by annexin V-PI staining based flow cytometric analysis (reference value: 52.04%); format: functional
NCI-H1650 [19] = test: Induction of cell cycle arrest in human NCI-H1650 cells assessed as accumulation of cells in G2 phase measured at 1 uM for 24 hrs by annexin V-PI staining based flow cytometric analysis (reference value: 18.00%); format: functional
NCI-H1650 [20] = test: Induction of cell cycle arrest in human NCI-H1650 cells assessed as accumulation of cells in S phase measured at 1 uM for 24 hrs by annexin V-PI staining based flow cytometric analysis (reference value: 29.97%); format: functional
NCI-H1650 [21] = test: Induction of cell cycle arrest in human NCI-H1650 cells assessed as accumulation of cells in G1 phase measured at 2 uM for 24 hrs by annexin V-PI staining based flow cytometric analysis (reference value: 52.04%); format: functional
NCI-H1650 [22] = test: Induction of cell cycle arrest in human NCI-H1650 cells assessed as accumulation of cells in G2 phase measured at 2 uM for 24 hrs by annexin V-PI staining based flow cytometric analysis (reference value: 18.00%); format: functional
NCI-H1650 [23] = test: Induction of cell cycle arrest in human NCI-H1650 cells assessed as accumulation of cells in S phase measured at 2 uM for 24 hrs by annexin V-PI staining based flow cytometric analysis (reference value: 29.97%); format: functional
NCI-H1650 [24] = test: Induction of cell cycle arrest in human NCI-H1650 cells assessed as accumulation of cells in G1 phase measured at 4 uM for 24 hrs by annexin V-PI staining based flow cytometric analysis (reference value: 52.04%); format: functional
NCI-H1650 [25] = test: Induction of cell cycle arrest in human NCI-H1650 cells assessed as accumulation of cells in G2 phase measured at 4 uM for 24 hrs by annexin V-PI staining based flow cytometric analysis (reference value: 18.00%); format: functional
NCI-H1650 [26] = test: Induction of cell cycle arrest in human NCI-H1650 cells assessed as accumulation of cells in S phase measured at 4 uM for 24 hrs by annexin V-PI staining based flow cytometric analysis (reference value: 29.97%); format: functional
NCI-H1650 [27] = test: Antitumor activity against human NCI-H1650 cells xenografted in mouse assessed as reduction of tumor weight at 10 mg/kg, po for 21 days relative to control; format: ADME, organism-based; set-up: scale not given: the % may be the effect or the level left; details: in vivo, 504 h, time 21 day
NCI-H1650 [28] = test: Antitumor activity against human NCI-H1650 cells xenografted in mouse assessed as reduction of tumor weight at 20 mg/kg, po for 21 days relative to control; format: ADME, organism-based; set-up: scale not given: the % may be the effect or the level left; details: in vivo, 504 h, time 21 day
[29] = Toxicity in mouse xenografted with human NCI-H1650 cells assessed as change in body weight at 10 to 20 mg/kg, po measured every 4 days for 21 days; format: organism-based; details: in vivo, 504 h, dose 10-20 mg/kg, time 21 day
[30] = Toxicity in mouse xenografted with human NCI-H1650 cells assessed as increase in survival rate at 10 to 20 mg/kg, po treated for 21 days measured every 10 days for 50 days; format: organism-based; details: in vivo, 504 h, dose 10-20 mg/kg, time 21 day
MGC-803 [31] = test: cells; details: Homo sapiens, MGC-803, 72 h
Description: Antiproliferative activity against human MGC-803 cells incubated for 72 hrs by MTT assay

MGC-803 [32] = test: cells; details: Homo sapiens, MGC-803, 72 h; remark: listed apart in the source
Description: Antiproliferative activity against human MGC-803 LSD knock out cells incubated for 72 hrs by MTT assay

SGC-7901 = test: cells; details: Homo sapiens, SGC-7901, 72 h
Description: Antiproliferative activity against human SGC-7901 cells incubated for 72 hrs by MTT assay

GES1 = test: cells; details: Homo sapiens, GES1, 72 h
Description: Antiproliferative activity against human GES1 cells incubated for 72 hrs by MTT assay

MCF7 = test: cells; details: Homo sapiens, MCF7, 72 h
Description: Antiproliferative activity against human MCF7 cells incubated for 72 hrs by MTT assay

NCI-H1650 [33] = test: cells; details: Homo sapiens, NCI-H1650, 72 h
Description: Antiproliferative activity against human NCI-H1650 cells incubated for 72 hrs by MTT assay

A549 = test: cells; details: Homo sapiens, A549, 72 h
Description: Antiproliferative activity against human A549 cells incubated for 72 hrs by MTT assay

NCI-H460 = test: cells; details: Homo sapiens, NCI-H460, 72 h
Description: Antiproliferative activity against human NCI-H460 cells incubated for 72 hrs by MTT assay

PC-3 = test: cells; details: Homo sapiens, PC-3, 72 h
Description: Antiproliferative activity against human PC-3 cells incubated for 72 hrs by MTT assay

ECa-109 cell line = test: cells; details: Homo sapiens, ECa-109, 72 h
Description: Antiproliferative activity against human EC109 cells incubated for 72 hrs by MTT assay

Work on `CCCSc1nc(Oc2c(OC)cc(CN[C@@H]3C[C@H]3c3ccccc3)cc2OC)c2nnn(Cc3cccc(Cl)c3)c2n1` yielded an inhibition at 1 h, 1 µM [1] of 25.5%, an inhibition at 1 h, 1 µM [2] of 52% and a viability at 1 µM (NCI-H1650 [3]) of 56.1%. For the same compound, the Activity (NCI-H1650 [4]) was 40.3%, the Activity (NCI-H1650 [5]) was 3.6% and the Activity (NCI-H1650 [6]) was 0.022%. The viability at 2 µM (NCI-H1650 [7]) was 55.4%, the Activity (NCI-H1650 [8]) was 38.5% and the Activity (NCI-H1650 [9]) was 6.02%. For the same compound, the Activity (NCI-H1650 [10]) was 0.138%, the viability at 4 µM (NCI-H1650 [11]) was 54.3% and the Activity (NCI-H1650 [12]) was 38.4%. It also gave an Activity (NCI-H1650 [13]) of 7.32%, an Activity (NCI-H1650 [14]) of 0.041% and an Activity (NCI-H1650 [15]) of 43.9%. It also gave an Activity (NCI-H1650 [16]) of 44.5%, an Activity (NCI-H1650 [17]) of 45.7% and an Activity (NCI-H1650 [18]) of 51.44%. It also gave an Activity (NCI-H1650 [19]) of 15.24%, an Activity (NCI-H1650 [20]) of 33.32% and an Activity (NCI-H1650 [21]) of 49.59%. For the same compound, the Activity (NCI-H1650 [22]) was 10.6%, the Activity (NCI-H1650 [23]) was 39.81% and the Activity (NCI-H1650 [24]) was 48.98%. For the same compound, the Activity (NCI-H1650 [25]) was 7.76%, the Activity (NCI-H1650 [26]) was 43.26% and the Activity (NCI-H1650 [27]) was 41.5%. The Activity (NCI-H1650 [28]) was 64%, the Activity [29] was “Non-Toxic” and the Activity [30] was “Non-Toxic”. For the same compound, the IC50 (MGC-803 [31]) was 5.1 µM, the IC50 (MGC-803 [32]) was > 20 µM and the IC50 (SGC-7901) was 9.5 µM. The IC50 (GES1) was > 20 µM, the IC50 (MCF7) was 13.4 µM and the IC50 (NCI-H1650 [33]) was 4.3 µM. It also gave an IC50 (A549) of 7.9 µM, an IC50 (NCI-H460) of 13.6 µM and an IC50 (PC-3) of 7.5 µM. The IC50 (ECa-109 cell line) was 15.2 µM.
